# Measured values: patent US20070142462A1, “Method of Treating Cancer” (The University of Utah, priority 2000, published 2007)
# Columns and labels:
# Type in all cases: cell-based, human
# [1] = test system: NF-κB; assay: EMSA of constitutive nuclear NF-κB DNA binding, M1585; details: M1585 melanoma; catalase 3,000 U/ml for 24 hours
# Description: (§1) The effect of antioxidants on nuclear activation of NF-κB was studied by incubating near confluent (70%) cell cultures with antioxidant treatments for 1-48 hours. Nuclear protein was harvested, and EMSAs were performed using DNA consensus binding sequences, or nuclear translocation of the p65 component of NF-κB was studied by immunoperoxidase staining, as outlined below.
# (§2) Electrophoretic Mobility Shift Assays (EMSAs). Nuclear protein was isolated and DNA binding reactions were performed as previously described in detail, Kennedy et al., Am. J. Respir. Cell Mol. Biol. 19:366-378 (1998). Monolayers were washed twice in cold DPBS and equilibrated 10 min on ice with 0.7 ml cold cytoplasmic extraction buffer, CEB (10 mM Tris, pH 7.9, 60 mM KCl, 1 mM EDTA, 1 mM DTT) with protease inhibitors, PI (1 mM Pefabloc, 50 μg/ml antipain, 1 μg/ml leupeptin, 1 μg/ml pepstatin, 40 μg/ml bestatin, 3 μg/ml E-64 and 100 μg/ml chymostatin). […] DNA-protein binding reactions were performed with 2 μg of nuclear protein (as determined by the Pierce method) and 30-80,000 cpm of ^32P-end-labelled double-stranded DNA probe in 10 mM Tris-HCl, pH 7.5, 50 mM NaCl, 0.5 mM EDTA, 0.5 mM DTT, 1 mM MgCl2, 50 μg/ml poly dI-dC, and 4% glycerol. […] Gels were dried and analyzed by autoradiography at −80° C. using an image intensifier screen. […]
# [2] = test system: NF-κB; assay: EMSA of constitutive nuclear NF-κB DNA binding, LNCaP; details: LNCaP prostate carcinoma; catalase 3,000 U/ml for 24 hours
# Description: as §1, §2
# [3] = test system: NF-κB; assay: EMSA of constitutive nuclear NF-κB DNA binding, MDA-MB-453; details: MDA-MB-453 breast carcinoma; catalase 3,000 U/ml for 24 hours
# Description: as §1, §2
# [4] = test system: M1619 cells; assay: DNA cell cycle analysis by flow cytometry; details: 3,000 U/ml catalase, 24 hours
# Description: DNA Cell Cycle Measurements. To study the effect of antioxidant treatments on the DNA cell cycle, cells were grown to near confluence in 25 cm^2 plastic flasks and treated for 24 hours. Cells were typsinized, washed twice in cold DPBS with 1 mM EDTA and 1% bovine serum albumin (BSA), fixed 30 min in ice-cold 70% ethanol, and stained by incubation for 30 min at 37° C. in a 10 μg/ml solution of propidium iodide in DPBS and 1 mg/ml RNase A. DNA cell cycle measurements were made using a FACStar^PLUS Flow Cytometer (Becton-Dickenson, San Jose, Calif.).
# Near confluent monolayers of M1619 cells were incubated in RPMI 1640 and 10% FBS in the presence or absence of 3,000 U/ml catalase. After 24 hours, cells were harvested, ethanol-fixed, permeabilized with proteinase K, stained with propidium iodide and subjected to DNA cell cycle analysis. Whereas a large fraction (30.2%) of untreated cells (FIG. 6A) were tetraploid, only 12.8% of catalase-treated cells (FIG. 6B) were tetraploid. […] G2-M was hidden by tetraploid G0-G1 or by debris and could not be analyzed.
substance,measurement,setting,value
Catalase,constitutive nuclear DNA binding activity for NF-κB,[1],suppressed
same,constitutive nuclear DNA binding activity for NF-κB,[2],suppressed
same,constitutive nuclear DNA binding activity for NF-κB,[3],suppressed
same,fraction of cells tetraploid,[4]; untreated 30.2%,12.8%
same,total percentage of cells in S-phase,[4]; untreated 41.2%,56.7%
